In ChEMBL document CHEMBL1177848, “Synthesis of novel 6,6a,7,8-tetrahydro-5H-naphtho[1,2-e]pyrimido[4,5-b][1,4]diazepines under microwave irradiation as potential anti-tumor agents” (2010):
Activity calls are given as the source filed them. The calls are words filed in the database; no cut-off is given here.

How the values were obtained:
UO-31 [1] = test: Growth inhibition of human UO31 cells at 1 uM after 48 hrs by sulforhodamine B assay; assay type: functional, cell-based
CAKI-1 [2] = test: Growth inhibition of human Caki1 cells at 1 uM after 48 hrs by sulforhodamine B assay; assay type: functional, cell-based
U-251 = test: Growth inhibition of human U251 cells at 1 uM after 48 hrs by sulforhodamine B assay; assay type: functional, cell-based
M14 = test: Growth inhibition of human M14 cells at 1 uM after 48 hrs by sulforhodamine B assay; assay type: functional, cell-based
OVCAR-4 [3] = test: Growth inhibition of human OVCAR4 cells after 48 hrs by sulforhodamine B assay; assay type: functional; conditions: OVCAR-4, 48 h
MCF7 [4] = test: Growth inhibition of human MCF7 cells after 48 hrs by sulforhodamine B assay; assay type: functional; conditions: MCF7, 48 h
PC-3 [5] = test: Growth inhibition of human PC3 cells at 1 uM after 48 hrs by sulforhodamine B assay; assay type: functional, cell-based
SK-MEL-5 = test: Growth inhibition of human SK-MEL-5 cells at 1 uM after 48 hrs by sulforhodamine B assay; assay type: functional, cell-based
IGROV-1 [6] = test: Growth inhibition of human IGROV1 cells after 48 hrs by sulforhodamine B assay; assay type: functional; conditions: IGROV-1, 48 h
CCRF-CEM = test: Growth inhibition of human CCRF-CEM cells at 1 uM after 48 hrs by sulforhodamine B assay; assay type: functional, cell-based
UACC-62 = test: Growth inhibition of human UACC62 cells at 1 uM after 48 hrs by sulforhodamine B assay; assay type: functional, cell-based
NCI-H522 [7] = test: Growth inhibition of human NCI-H522 cells after 48 hrs by sulforhodamine B assay; assay type: functional; conditions: NCI-H522, 48 h
EKVX = test: Growth inhibition of human EKVX cells after 48 hrs by sulforhodamine B assay; assay type: functional
KM12 = test: Growth inhibition of human KM12 cells at 1 uM after 48 hrs by sulforhodamine B assay; assay type: functional, cell-based
SR = test: Growth inhibition of human SR cells after 48 hrs by sulforhodamine B assay; assay type: functional
Hs-578T = test: Growth inhibition of human Hs 578T cells at 1 uM after 48 hrs by sulforhodamine B assay; assay type: functional, cell-based
HCC 2998 = test: Growth inhibition of human HCC2998 cells at 1 uM after 48 hrs by sulforhodamine B assay; assay type: functional, cell-based
MCF7 [8] = test: Growth inhibition of human MCF7 cells at 1 uM after 48 hrs by sulforhodamine B assay; assay type: functional, cell-based
UACC-257 = test: Growth inhibition of human UACC257 cells at 1 uM after 48 hrs by sulforhodamine B assay; assay type: functional, cell-based
SF-268 = test: Growth inhibition of human SF268 cells at 1 uM after 48 hrs by sulforhodamine B assay; assay type: functional, cell-based
LOX IMVI = test: Growth inhibition of human LOXIMVI cells after 48 hrs by sulforhodamine B assay; assay type: functional
SNB-75 = test: Growth inhibition of human SNB75 cells at 1 uM after 48 hrs by sulforhodamine B assay; assay type: functional, cell-based
CAKI-1 [9] = test: Growth inhibition of human Caki1 cells after 48 hrs by sulforhodamine B assay; assay type: functional; conditions: CAKI-1, 48 h
SW-620 = test: Growth inhibition of human SW620 cells at 1 uM after 48 hrs by sulforhodamine B assay; assay type: functional, cell-based
HOP-92 = test: Growth inhibition of human HOP92 cells after 48 hrs by sulforhodamine B assay; assay type: functional; conditions: HOP-92, 48 h
MDA-MB-468 = test: Growth inhibition of human MDA-MB-468 cells after 48 hrs by sulforhodamine B assay; assay type: functional; conditions: MDA-MB-468, 48 h
NCI/ADR-RES [10] = test: Growth inhibition of human NCI/ADR-RES cells at 1 uM after 48 hrs by sulforhodamine B assay; assay type: functional, cell-based
NCI-H322M = test: Growth inhibition of human […] cells at 1 uM after 48 hrs by sulforhodamine B assay; assay type: functional, cell-based
OVCAR-3 [11] = test: Growth inhibition of human OVCAR-3 cells after 48 hrs by sulforhodamine B assay; assay type: functional; conditions: OVCAR-3, 48 h
NCI-H226 = test: Growth inhibition of human NCI-H226 cells at 1 uM after 48 hrs by sulforhodamine B assay; assay type: functional, cell-based
NCI/ADR-RES [12] = test: Growth inhibition of human NCI/ADR-RES cells after 48 hrs by sulforhodamine B assay; assay type: functional
Malme-3M = test: Growth inhibition of human MALME-3M cells at 1 uM after 48 hrs by sulforhodamine B assay; assay type: functional, cell-based
A549 = test: Growth inhibition of human A549 cells at 1 uM after 48 hrs by sulforhodamine B assay; assay type: functional, cell-based
HL-60 = test: Growth inhibition of human HL-60(TB) cells at 1 uM after 48 hrs by sulforhodamine B assay; assay type: functional, cell-based
RXF 393 = test: Growth inhibition of human RXF393 cells after 48 hrs by sulforhodamine B assay; assay type: functional; conditions: RXF 393, 48 h
SK-MEL-2 = test: Growth inhibition of human SK-MEL-2 cells at 1 uM after 48 hrs by sulforhodamine B assay; assay type: functional, cell-based
MDA-MB-435 = test: Growth inhibition of human MDA-MB-435 cells at 1 uM after 48 hrs by sulforhodamine B assay; assay type: functional, cell-based
OVCAR-3 [13] = test: Growth inhibition of human OVCAR-3 cells at 1 uM after 48 hrs by sulforhodamine B assay; assay type: functional, cell-based
IGROV-1 [14] = test: Growth inhibition of human IGROV1 cells at 1 uM after 48 hrs by sulforhodamine B assay; assay type: functional, cell-based
SF-295 = test: Growth inhibition of human SF295 cells at 1 uM after 48 hrs by sulforhodamine B assay; assay type: functional, cell-based
T47D = test: Growth inhibition of human T47D cells after 48 hrs by sulforhodamine B assay; assay type: functional
UO-31 [15] = test: Growth inhibition of human UO31 cells after 48 hrs by sulforhodamine B assay; assay type: functional; conditions: UO-31, 48 h
HOP-62 = test: Growth inhibition of human HOP62 cells at 1 uM after 48 hrs by sulforhodamine B assay; assay type: functional, cell-based
BT-549 = test: Growth inhibition of human BT549 cells after 48 hrs by sulforhodamine B assay; assay type: functional; conditions: BT-549, 48 h
OVCAR-4 [16] = test: Growth inhibition of human OVCAR4 cells at 1 uM after 48 hrs by sulforhodamine B assay; assay type: functional, cell-based
NCI-H522 [17] = test: Growth inhibition of human NCI-H522 cells at 1 uM after 48 hrs by sulforhodamine B assay; assay type: functional, cell-based
PC-3 [18] = test: Growth inhibition of human PC3 cells after 48 hrs by sulforhodamine B assay; assay type: functional; conditions: PC-3, 48 h
HCT-15 = test: Growth inhibition of human HCT15 cells at 1 uM after 48 hrs by sulforhodamine B assay; assay type: functional, cell-based
[19] = read-out: LC50 (the source's name)

SMILES: Nc1nc(N)c2c(n1)NC(c1ccccc1)C1CCc3ccccc3C1=N2 (stereo not given)
- growth inhibition (GI) (UO-31 [1]): inactive
- growth inhibition (GI) (CAKI-1 [2]): inactive
- growth inhibition (GI) (U-251): inactive
- growth inhibition (GI) (M14): inactive
- GI50 (OVCAR-4 [3]): 3.06 µM
- LC50 (50% lethal concentration) (OVCAR-4 [3]): 62.3 µM
- GI50 (MCF7 [4]): 3.25 µM
- LC50 (MCF7 [4]): 46.7 µM
- growth inhibition (GI) (PC-3 [5]): inactive
- growth inhibition (GI) (SK-MEL-5): inactive
- GI50 (IGROV-1 [6]): 4.45 µM
- LC50 (concentration killing 50% of cells) (IGROV-1 [6]): 62.3 µM
- growth inhibition (GI) (CCRF-CEM): inactive
- growth inhibition (GI) (UACC-62): inactive
- GI50 (NCI-H522 [7]): 4.53 µM
- LC50 (NCI-H522 [7]): 65.4 µM
- GI50 (EKVX): 2.68 µM
- LC50 (EKVX): 78.3 µM
- growth inhibition (GI) (KM12): inactive
- GI50 (SR): 4.52 µM
- LC50 (SR): > 100 µM
- growth inhibition (GI) (Hs-578T): inactive
- growth inhibition (GI) (HCC 2998): inactive
- growth inhibition (GI) (MCF7 [8]): inactive
- growth inhibition (GI) (UACC-257): inactive
- growth inhibition (GI) (SF-268): inactive
- GI50 (LOX IMVI): 3.79 µM
- LC50 (LOX IMVI): 40.6 µM
- growth inhibition (GI) (SNB-75): inactive
- GI50 (CAKI-1 [9]): 3.97 µM
- CC50 (CAKI-1 [9]; [19]): 48.5 µM
- growth inhibition (GI) (SW-620): inactive
- GI50 (HOP-92): 2.55 µM
- LC50 (50% lethal concentration) (HOP-92): 40.6 µM
- GI50 (MDA-MB-468): 0.473 µM
- CC50 (MDA-MB-468; [19]): 20.8 µM
- growth inhibition (GI) (NCI/ADR-RES [10]): inactive
- growth inhibition (GI) (NCI-H322M): inactive
- GI50 (OVCAR-3 [11]): 3.48 µM
- LC50 (lethal concentration, 50% cell kill) (OVCAR-3 [11]): 39.4 µM
- growth inhibition (GI) (NCI-H226): inactive
- GI50 (NCI/ADR-RES [12]): 3.13 µM
- LC50 (concentration killing 50% of cells) (NCI/ADR-RES [12]): > 100 µM
- growth inhibition (GI) (Malme-3M): inactive
- growth inhibition (GI) (A549): inactive
- growth inhibition (GI) (HL-60): inactive
- GI50 (RXF 393): 4.89 µM
- LC50 (50% lethal concentration) (RXF 393): 66.7 µM
- growth inhibition (GI) (SK-MEL-2): inactive
- growth inhibition (GI) (MDA-MB-435): inactive
- growth inhibition (GI) (OVCAR-3 [13]): inactive
- growth inhibition (GI) (IGROV-1 [14]): inactive
- growth inhibition (GI) (SF-295): inactive
- GI50 (T47D): 4.57 µM
- CC50 (T47D; [19]): > 100 µM
- GI50 (UO-31 [15]): 2.5 µM
- LC50 (UO-31 [15]): 45 µM
- growth inhibition (GI) (HOP-62): inactive
- GI50 (BT-549): 5.42 µM
- CC50 (BT-549; [19]): 47.9 µM
- growth inhibition (GI) (OVCAR-4 [16]): inactive
- growth inhibition (GI) (NCI-H522 [17]): inactive
- GI50 (PC-3 [18]): 2.82 µM
- LC50 (PC-3 [18]): > 100 µM
- growth inhibition (GI) (HCT-15): inactive
